Assay results from publication PMC7138307 (PLoS ONE, 2020).
Read-outs that look alike come from different tables or passages of the source.

Columns and labels:
[1] = Pharmacokinetic experiment, free drug levels in mouse; type: in vivo
FES [2] = target: T1, FES (Mus musculus, UniProt P16879); test: Ex vivo KiNativ ATP/ADP probe competition in mouse cortical brain lysates; type: binding; conditions: LRADNTPVAVKSCR, Lys1
T1 construct: homogenized brain lysates were labeled with Desthiobiotin-ADP-acyl phosphate probe; from tissue; host or cells: mouse cortical brain lysate
T1 sequence (P16879 whole entry): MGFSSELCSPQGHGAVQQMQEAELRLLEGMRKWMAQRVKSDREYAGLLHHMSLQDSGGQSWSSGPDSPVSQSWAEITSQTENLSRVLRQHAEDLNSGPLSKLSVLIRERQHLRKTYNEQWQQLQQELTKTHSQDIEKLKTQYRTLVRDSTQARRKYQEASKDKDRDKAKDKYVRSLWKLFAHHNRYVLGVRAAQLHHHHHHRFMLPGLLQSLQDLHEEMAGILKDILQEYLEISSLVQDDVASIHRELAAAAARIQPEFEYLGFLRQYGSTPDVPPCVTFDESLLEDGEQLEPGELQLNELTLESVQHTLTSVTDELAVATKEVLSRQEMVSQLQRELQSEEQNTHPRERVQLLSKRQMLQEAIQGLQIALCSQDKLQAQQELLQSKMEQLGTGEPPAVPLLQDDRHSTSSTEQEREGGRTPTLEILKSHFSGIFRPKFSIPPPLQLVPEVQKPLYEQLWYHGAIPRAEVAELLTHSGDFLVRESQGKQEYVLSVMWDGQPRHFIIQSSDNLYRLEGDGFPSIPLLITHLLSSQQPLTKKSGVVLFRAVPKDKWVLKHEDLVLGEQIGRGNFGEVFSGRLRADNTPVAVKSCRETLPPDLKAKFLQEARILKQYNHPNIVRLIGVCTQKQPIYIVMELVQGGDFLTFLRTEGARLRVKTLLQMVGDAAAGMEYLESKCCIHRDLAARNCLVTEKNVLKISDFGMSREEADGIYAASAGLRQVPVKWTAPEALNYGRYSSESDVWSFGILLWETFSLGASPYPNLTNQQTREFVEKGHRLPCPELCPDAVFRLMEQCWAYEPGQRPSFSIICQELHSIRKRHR

PIP4K2C = target: T2, PIP4K2C (Mus musculus, UniProt Q91XU3); test: In vivo target engagement, KiNativ ADP probe, mouse brain lysates; conditions: 75 mg/kg I.P., one hour, peptide TLVIKEVSSEDIADMHSNLSNYHQYIVK, ATP site
T2 construct: from tissue; host or cells: mouse cortical brain lysate
T2 sequence (Q91XU3 1-421): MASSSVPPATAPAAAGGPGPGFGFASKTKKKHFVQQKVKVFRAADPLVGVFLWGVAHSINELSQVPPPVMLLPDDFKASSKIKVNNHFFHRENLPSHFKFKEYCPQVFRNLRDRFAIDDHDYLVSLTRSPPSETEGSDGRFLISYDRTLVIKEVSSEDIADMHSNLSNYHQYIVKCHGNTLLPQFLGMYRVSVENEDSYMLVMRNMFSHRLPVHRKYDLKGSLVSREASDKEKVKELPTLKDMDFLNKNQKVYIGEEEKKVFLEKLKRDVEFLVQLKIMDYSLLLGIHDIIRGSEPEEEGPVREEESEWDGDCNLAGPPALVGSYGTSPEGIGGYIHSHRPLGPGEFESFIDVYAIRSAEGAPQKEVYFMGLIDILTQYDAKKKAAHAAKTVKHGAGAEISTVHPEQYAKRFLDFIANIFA
Text: (§1) To determine both in vivo target engagement and identify any potential off-target kinases inhibited by BIIB-TTBKi, we used a combination of desthiobiotin-ATP/ADP probes to covalently bind and biotinylate the conserved lysine residues at the active site of protein kinases (ActivX-KiNativ; Kyorin Pharmaceuticals, Ltd, Tokyo Japan). […] Lysates were trypsin digested and desthiobiotinylated peptides were captured on streptavidin beads. A list of 269 unique peptides were quantified through LC-MS/MS parallel reaction monitoring method. Target engagement was calculated as the percentage of peptide signal lost after addition of BIIB-TTBKi when compared to the vehicle treated lysate. Using the ADP probe, we were able to detect a total of 150 kinases in the mouse cortical brain lysates (Fig 5A).
(§2) Mice were euthanized one hour following injection and homogenized brain lysates were labeled with Desthiobiotin-ADP-acyl phosphate probe (ADP probe). Desthiobiotinylated peptides were captured on streptavidin beads and peptides were quantified through LC-MS/MS parallel reaction monitoring method. Target engagement was calculated as the percentage of peptide signal lost when compared to the vehicle treated lysate. (A) Visualization of the off-target effects of BIIB-TTBKi at 75mg/kg. The ADP probe labelled around 150 unique kinases in mouse cortical brain lysates.

PIP5K3 [3] = target: T3, PIP5K3 (Mus musculus, UniProt Q9Z1T6); test: as above; conditions: 75 mg/kg I.P., one hour, peptide GGKSGAAFYATEDDRFILK, ATP site
T3 construct: homogenized brain lysates were labeled with Desthiobiotin-ADP-acyl phosphate probe; from tissue; host or cells: mouse cortical brain lysate
T3 sequence (Q9Z1T6 whole entry): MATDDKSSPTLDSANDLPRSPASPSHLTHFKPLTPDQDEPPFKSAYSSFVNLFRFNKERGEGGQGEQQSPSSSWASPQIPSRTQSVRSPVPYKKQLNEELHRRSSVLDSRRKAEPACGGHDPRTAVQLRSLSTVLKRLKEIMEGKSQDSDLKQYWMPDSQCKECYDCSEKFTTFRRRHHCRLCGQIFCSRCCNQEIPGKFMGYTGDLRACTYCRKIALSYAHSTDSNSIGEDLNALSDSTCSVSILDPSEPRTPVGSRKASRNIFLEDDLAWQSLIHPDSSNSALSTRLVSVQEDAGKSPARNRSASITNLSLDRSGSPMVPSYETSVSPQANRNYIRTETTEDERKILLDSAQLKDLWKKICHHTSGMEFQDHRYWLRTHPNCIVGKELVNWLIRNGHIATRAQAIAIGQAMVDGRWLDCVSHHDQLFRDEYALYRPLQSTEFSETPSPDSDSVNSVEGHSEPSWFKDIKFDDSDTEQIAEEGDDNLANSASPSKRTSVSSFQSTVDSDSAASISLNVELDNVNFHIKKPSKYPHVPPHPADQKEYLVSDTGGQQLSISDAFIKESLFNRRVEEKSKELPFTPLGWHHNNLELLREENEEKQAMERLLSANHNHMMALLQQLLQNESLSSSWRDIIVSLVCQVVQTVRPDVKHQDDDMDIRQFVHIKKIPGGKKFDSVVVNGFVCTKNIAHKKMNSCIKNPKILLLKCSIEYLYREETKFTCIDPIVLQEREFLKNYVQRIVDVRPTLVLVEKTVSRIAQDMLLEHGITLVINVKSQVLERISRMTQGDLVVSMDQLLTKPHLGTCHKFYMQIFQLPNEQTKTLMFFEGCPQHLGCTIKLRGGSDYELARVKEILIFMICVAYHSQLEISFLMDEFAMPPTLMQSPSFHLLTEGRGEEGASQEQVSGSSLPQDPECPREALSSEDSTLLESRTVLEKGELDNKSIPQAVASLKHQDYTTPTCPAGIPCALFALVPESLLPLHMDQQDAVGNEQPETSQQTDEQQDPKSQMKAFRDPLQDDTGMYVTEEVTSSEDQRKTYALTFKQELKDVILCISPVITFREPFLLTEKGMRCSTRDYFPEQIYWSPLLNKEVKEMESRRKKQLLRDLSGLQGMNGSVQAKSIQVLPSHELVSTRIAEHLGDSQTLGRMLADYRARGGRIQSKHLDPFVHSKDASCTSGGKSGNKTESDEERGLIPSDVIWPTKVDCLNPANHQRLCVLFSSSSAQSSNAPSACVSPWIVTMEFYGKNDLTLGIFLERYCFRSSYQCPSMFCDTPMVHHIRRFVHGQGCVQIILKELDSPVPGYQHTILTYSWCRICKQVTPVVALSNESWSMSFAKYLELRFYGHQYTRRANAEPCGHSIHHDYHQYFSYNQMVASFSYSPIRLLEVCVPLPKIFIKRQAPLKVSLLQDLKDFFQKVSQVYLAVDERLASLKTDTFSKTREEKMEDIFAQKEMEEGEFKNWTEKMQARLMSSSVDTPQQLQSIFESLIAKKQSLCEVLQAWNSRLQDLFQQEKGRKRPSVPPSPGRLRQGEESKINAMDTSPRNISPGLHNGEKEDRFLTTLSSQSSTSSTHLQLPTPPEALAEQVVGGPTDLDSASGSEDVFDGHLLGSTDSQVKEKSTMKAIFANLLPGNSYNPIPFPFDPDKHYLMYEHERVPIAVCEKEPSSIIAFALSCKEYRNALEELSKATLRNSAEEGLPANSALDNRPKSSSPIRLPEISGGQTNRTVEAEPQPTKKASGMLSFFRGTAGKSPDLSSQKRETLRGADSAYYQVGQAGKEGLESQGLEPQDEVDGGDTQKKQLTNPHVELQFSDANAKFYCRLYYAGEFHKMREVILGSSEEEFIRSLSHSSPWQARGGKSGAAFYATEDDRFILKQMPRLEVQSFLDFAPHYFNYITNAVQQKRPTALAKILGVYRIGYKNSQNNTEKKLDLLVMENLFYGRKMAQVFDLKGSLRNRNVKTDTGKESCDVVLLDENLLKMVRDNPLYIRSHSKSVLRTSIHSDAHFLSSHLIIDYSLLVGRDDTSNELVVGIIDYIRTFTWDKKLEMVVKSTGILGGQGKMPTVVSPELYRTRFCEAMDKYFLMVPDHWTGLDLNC
Text: as §1, §2

FES [4] = target: T1, FES; test: as above; conditions: 75 mg/kg I.P., one hour, peptide LRADNTPVAVKSCR, Lys1
Text: as §1, §2

TTBK1, TTBK2 = test: as above; conditions: 75 mg/kg I.P., one hour, peptide DIKPSNFAMGR, Lys2
Text: as §1, §2

PIP5K3 [5] = target: T3, PIP5K3; test: Ex vivo KiNativ ATP/ADP probe competition in mouse cortical brain lysates; type: binding; conditions: GGKSGAAFYATEDDRFILK, labeling site ATP
[6] = Free drug in the brain after hypothermia experiment; type: in vivo; conditions: C57Bl/6, mouse, intraperitoneal, one hour after dosing
Method: Following hypothermia induction, 200–300 μL of blood was collected via cardiac punch and transferred to K2EDTA-treated BD Microtainers (Becton Dickinson and Co., Franklin Lakes, NJ). Mice were sacrificed via decapitation and brains were quickly removed and bisected sagitally. The right cortices, were isolated, placed into 2 mL microtubes along with a single 5 mm stainless steel bead and the left cortices were placed into 2 mL Lysing Matrix A tubes (MP Biomedicals, Santa Ana, CA). Both tubes were immediately snap frozen in liquid nitrogen. The whole blood-containing microtainers were centrifuged (2000 x g, 5 minutes) and plasma was transferred to 96-well plates for pharmacokinetic determination. […] The protein content of each sample was quantified using a Direct Detect Infrared Spectrometer (EMD Millipore Corp., Burlington, MA).
In vitro plasma and brain protein binding values were generated via the Rapid Equilibrium Dialysis method. […] At the conclusion of incubation, samples were taken from both matrix and buffered compartments, matrix-matched using blank buffer and matrix, extracted with acetonitrile, diluted with water, and analyzed utilizing an Agilent RapidFire 365 high-throughput LC coupled with MS/MS detection via an AB Sciex 5500. Free fractions (fu) were then calculated by comparing peak-area ratios of matrix and buffered compartments. […]

With `CCC(C)(O)C#Cc1cc2c(ccn2-c2ccnc(N)n2)cn1` (centres unmarked) [BIIB-TTBK1i] the clearance rate [1] was “rapid”, the “Percent Inhibition at 1μM” value (FES [2]; ADP probe) was 79.8% and the “Percent Inhibition at 1μM” value (FES [2]; ATP probe) was 61.2%. The “Percent Inhibition with BIIB-TTBKi at 75mpk” value (from here on “Percent Inhibition … at 75mpk”) (PIP4K2C) was 86.3%, the “Percent Inhibition … at 75mpk” value (PIP5K3 [3]) was 90% and the “Percent Inhibition … at 75mpk” value (FES [4]) was 50.6%. For the same molecule, the “Percent Inhibition … at 75mpk” value (TTBK1, TTBK2) was 82%, the “Percent Inhibition at 1μM” value (PIP5K3 [5]; ADP probe) was 90.2% and the “Percent Inhibition at 1μM” value (PIP5K3 [5]; ATP probe) was 95.9%. The concentration at 1 h ([6]; 25mg/kg I.P., read-out: concentration of free drug in the brain) was 207 nM and the concentration at 1 h ([6]; 50mg/kg I.P., read-out: average free drug in the brain) was 602 nM.
